Experimental data reported in patent publication US20050260629A1, “Differential drug sensitivity” (Ludwig Institute for Cancer Research, priority 2004, published 2005).
“Also recorded” adds a separate entry of the source.

What was measured:
Assay type in all cases: cell-based, Human
[1] = system: proapoptotic promoter Pig3; assay: Pig3Luciferase reporter transactivation, transient transfection in U2OS cells; details: treated 24 hours
Method: (§1) Adherent cells were grown to a confluence of 70-80% in fresh medium. Cells were plated 24 hours prior to the transfection procedure. The medium on the dishes was replaced with 3 ml of fresh medium 15-30 minutes before the transfection. 2×HBS buffer (280 mM NaCl, 10 mM KCL, 1.4 mM Na2HPO4.2H2O, 12 mM glucose, 39 mM HEPES, adjusted to a pH 6.9-7.3) was diluted in sterile water to a concentration of 1× in a final volume of 300 μl. The required amount of DNA was added using sterile Gilson tips and mixed thoroughly. To form the precipitate, 12.5 μl of 2.5 M CaCl2 was added to the transfection mix and left at room temperature for 12-15 minutes. Six hours later dishes were washed with medium without serum once before adding 3 ml of fresh medium supplemented with 10% serum until further analysis of cells.
(§2) Twenty four hours after transfection, the cells were lysed in Reporter Lysis buffer supplied by Promega and assayed using the Luciferase assay kit (Promega), measuring luciferase activity with the Autolumat Plus (Berthold technologies). The fold activation of a particular reporter was determined by the activity of the transfected plasmid divided by the activity of vector alone. The fold increase of activity in response to drug treatment was obtained by the activity in the presence of drug divided by the activity of the untreated sample.
Some of the drugs commonly used in cancer therapy are known to stimulate p53 transactivation activity. To test their effect on a proapoptotic promoter specifically transactivated by p53, U2OS and MCF7 cells (both wild type p53) were transiently transfected with the proapoptotic reporter Pig3Luciferase and then treated for 24 hours with eight different compounds (FIGS. 1A and 1B).
Si—RNA cloned into pSuper plasmid (Brummelkamp et al., Science. 296(5567):550-3, 2002) was transiently transfected with the Pig3 reporter into U2OS cells treated with doxorubicin or cisplatin (FIG. 3A).

ASPP1 promoter = ASPP1 promoter luciferase stable U2OS cell line
Method: (§3) Cells were co-transfected with 1 μg of the plasmid of interest and 4 μg of pCDNA3, which contains the resistance gene against neomycin for 6 hours. They were washed once with PBS and cultured in medium supplemented with neomycin. Twenty four hours later they were split and plated at different dilutions (from 1:50 to 1:200) in medium containing neomycin. The medium was changed every three days for two weeks until colonies formed. Colonies were picked and sub-cultured into a 24-well plate. After proliferation of each colony, cells were characterized either by luciferase assays or by western blotting according to the cell line.
as §2
(§4) ASPP might respond to drugs in many ways in cells. To start investigating this, stable cell lines expressing luciferase under the control of the ASPP1 or ASPP2 promoters were created in U2OS cells. For each cell line, two clones were tested with the six drugs used previously. […] At the same time, these cell lines were used to titrate drugs.

MDM2 promoter = assay: MDM2Luciferase stable U2OS cell line
Method: as §3, §2
(§5) Pig3Luciferase, Pig3-delFLuciferase (similar to the Pig3 promoter but without the p53 binding site), p21Luciferase, MDM2Luciferase reporters were used to generate four cell lines in U2OS cells.

ASPP2 promoter = ASPP2 promoter luciferase stable U2OS cell line
Method: as §3, §2, §4

Pig3 promoter = assay: Pig3Luciferase stable U2OS cell line
Method: as §3, §2, §5

p21 promoter = assay: p21Luciferase stable U2OS cell line
Method: as §3, §2, §5

[2] = system: proapoptotic promoter Pig3; assay: Pig3Luciferase reporter transactivation, transient transfection in MCF7 cells; details: treated 24 hours
Method: as §1
as §2, with “sample. […]” for “sample.”

deleted Pig3 promoter = assay: Pig3-delFLuciferase stable U2OS cell line (no p53 binding site)
Method: as §3, §2, §5

[3] = drug titration, regardless of the concentration

Compound | ability of p53 to transactivate the Pig3 promoter [1] | MDM2 promoter activity (MDM2 promoter) | p21 promoter activity (p21 promoter) | Pig3-Luciferase activity (Pig3 promoter) | Pig3 promoter activity went up by [1] [fold] | ASPP1Luciferase reporter activity (ASPP1 promoter; [3]) | ability of p53 to transactivate the Pig3 promoter [2] | ASPP2 promoter activity (ASPP2 promoter; stable U2OS, clone 4) | further results
O=c1[nH]cc(F)c(=O)[nH]1 [5-Fluorouracil] | able to induce such induction |  |  |  |  |  |  |  | concentration inducing the maximum ASPP1Luciferase reporter activity (ASPP1 promoter; drug titration): 40 µg/mL; ASPP1 promoter activity (ASPP1 promoter; stable U2OS, two clones, after 24 hours, listed as 5-fluorouracil): activates; effect on the MDM2 promoter (MDM2 promoter): 7 fold; ASPP2 promoter activation (ASPP2 promoter; clone 4, titration, at 40 μg/ml): 3 fold; Pig3 promoter activity induced by (Pig3 promoter): three
COc1cc([C@@H]2c3cc4c(cc3[C@@H](O[C@@H]3O[C@@H]5CO[C@@H](C)O[C@H]5[C@H](O)[C@H]3O)[C@H]3COC(=O)[C@H]23)OCO4)cc(OC)c1O [etoposide] |  | did not affect | did not affect | did not affect |  |  |  |  | 
N.N.[Cl][Pt][Cl] [cisplatin] | did not have the same efficiency as doxorubicin | did not affect | did not affect | did not affect | 2.9 | little effect |  |  | ASPP2 promoter activity (ASPP2 promoter; clone 4, drug titration): no effect
CO[C@@]12[C@H](COC(N)=O)C3=C(C(=O)C(C)=C(N)C3=O)N1C[C@@H]1N[C@@H]12 [mitomycin C] |  | did not affect | did not affect | did not affect |  |  |  |  | 
COc1cccc2c1C(=O)c1c(O)c3c(c(O)c1C2=O)C[C@@](O)(C(C)=O)C[C@@H]3O[C@H]1C[C@H](N)[C@H](O)[C@H](C)O1 [daunorubicin] | strongly increased | not p21 or MDM2 | not p21 or MDM2 | specifically stimulated | 34.7 | little effect | strongly increased | stimulated | ASPP2 promoter activity increase (ASPP2 promoter; clone 4, titration, at 150 ng/ml): 4 fold
COc1cccc2c1C(=O)c1c(O)c3c(c(O)c1C2=O)C[C@@](O)(C(=O)CO)C[C@@H]3O[C@H]1C[C@H](N)[C@H](O)[C@H](C)O1 [doxorubicin] | strongly increased | not p21 or MDM2 | not p21 or MDM2 | respond; also recorded: specifically stimulated |  |  | strongly increased | stimulated | ASPP1Luciferase reporter activity (ASPP1 promoter; drug titration, at 2 μM): 2 fold; toxicity in ASPP1Luciferase cells (ASPP1 promoter; drug titration, concentration reached 3 μM): toxic; activity of the deleted Pig3 promoter (deleted Pig3 promoter): did not affect; ASPP2 promoter activity (ASPP2 promoter; FIGS. 4A and 4B (both clones)): activates; ASPP2 promoter activity, increase over the control (ASPP2 promoter; clone 4, titration, at 2 μM (highest effect)): 10 fold; ASPP2 promoter activity (ASPP2 promoter; stable U2OS, clone 3): had an effect
